Data on one molecule can be found in BindingDB's records for patent US20250019381 (Cardurion Pharmaceuticals, 2025).

The target in the assay is Dual specificity calcium/calmodulin-dependent 3',5'-cyclic nucleotide phosphodiesterase 1A (Human, UniProt P54750). As to the kind of experiment: Enzyme immunoassay.
Sequence of Dual specificity calcium/calmodulin-dependent 3',5'-cyclic nucleotide phosphodiesterase 1A (P54750 whole entry): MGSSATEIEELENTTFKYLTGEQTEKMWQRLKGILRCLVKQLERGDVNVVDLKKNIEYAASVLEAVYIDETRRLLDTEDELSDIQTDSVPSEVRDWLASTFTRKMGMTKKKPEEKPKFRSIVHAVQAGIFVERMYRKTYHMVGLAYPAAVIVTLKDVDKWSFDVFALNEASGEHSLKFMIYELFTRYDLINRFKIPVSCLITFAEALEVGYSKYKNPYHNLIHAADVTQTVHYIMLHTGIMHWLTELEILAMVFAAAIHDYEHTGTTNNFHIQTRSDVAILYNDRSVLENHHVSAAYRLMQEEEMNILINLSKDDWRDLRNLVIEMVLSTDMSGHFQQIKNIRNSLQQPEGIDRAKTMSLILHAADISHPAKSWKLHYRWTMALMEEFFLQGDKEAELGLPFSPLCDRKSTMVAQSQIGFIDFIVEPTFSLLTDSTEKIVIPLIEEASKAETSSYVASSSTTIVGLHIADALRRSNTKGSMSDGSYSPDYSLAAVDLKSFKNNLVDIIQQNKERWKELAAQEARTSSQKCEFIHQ

For the molecule `O=c1[nH]c(CN2CC(Oc3cccnc3)C2)cn2c(C3CCOCC3)ncc12` [US20250019381, Compound (P2)], the IC50 is 5.28 µM.
